Measured values reported in the METLIN SMRT retention time set (Domingo-Almenara et al. 2019).

Experiment: gradient 5% acetonitrile 3 min, to 50% in 2 min, to 85% in 15 min, held 3 min, 100 µL/min
Conditions: column: Zorbax Extend-C18 2.1 x 50 mm; eluents: water / acetonitrile, 0.1% formic acid
Procedure, shortened: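 The mobile phases were water and acetonitrile, each with 0.1% formic acid, pumped at 100 μL/min through a Zorbax Extend-C18 column (2.1 × 50 mm, 1.8 μm). Pure standards were injected as mixtures of ~100 molecules and detected by a quadrupole time-of-flight mass spectrometer in positive and negative ionization mode. Retention time came from computationally picked adduct peaks, each inspected by hand.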

Row | SMILES | RP-LC retention time
1 | CCOCCCNC(=O)C1CCCN(S(=O)(=O)c2ccc(OC)c(C)c2)C1 (configuration not stated) | 813 s
2 | CC1CN2C=NC(N3CCN(C(=O)Nc4ccc(F)cc4F)CC3)=CC2=N1 (configuration not stated) | 664 s
3 | CC(C)(O)CC[C@@H](O)[C@](C)(O)[C@H]1CC[C@@]2(O)C3=CC(=O)[C@@H]4C[C@@H](O)[C@@H](O)C[C@]4(C)[C@H]3CC[C@]12C | 629 s
4 | CCn1ccc2sc(C)c(C(=O)NCCC(C)C)c2c1=O | 806 s
5 | CCSc1nnc(NC(=O)CSc2ncnc3ccccc23)s1 | 733 s
6 | Cc1c(C(=O)N2CCN=C2SCc2cccnc2)cccc1[N+](=O)[O-] | 577 s
7 | O=C(Nc1ccc(S(=O)(=O)Nc2nccs2)cc1)c1ccco1 | 616 s
8 | COc1cccc(CNC(=O)C2(C)CCCN(C(=O)Nc3ccc4c(c3)OCCO4)C2)c1 (configuration not stated) | 802 s
9 | O=C(NCCNc1cc(-n2cccn2)ncn1)c1c[nH]c2ccccc12 | 646 s
10 | Cc1ccc(NC(=O)N2CCC(n3c(-c4ccco4)nc4cccnc43)C2)cc1 (configuration not stated) | 776 s
11 | Cc1ccc(-c2noc(CN3C(=O)C(C)Oc4ccccc43)n2)cc1C (configuration not stated) | 1180 s
12 | O=C(NCCc1csc(-c2ccccc2)n1)C1CCN(C(=O)c2ccc(F)c(Cl)c2)CC1 | 1020 s
13 | CCN1C(=O)c2cccnc2Sc2cc(NC(=O)CCc3ccc(OC)cc3)ccc21 | 855 s
14 | CCOC(=O)C1=C(CN2CCC(C)CC2)NC(=O)NC1c1cccs1 (configuration not stated) | 611 s
15 | CCc1cccc(C)c1NC(=O)Cn1c(=O)n(-c2ccccc2)c(=O)c2c1cc(C)n2C | 833 s
16 | CC(C)CNC(=O)C(=O)NCc1ccccn1 | 552 s
17 | CCOC(=O)c1c(S(=O)(=O)N2CCC(C(=O)Nc3ccc(OC)cc3)CC2)c(C)n(C)c1C | 804 s
18 | O=C(O)c1cncc(NS(=O)(=O)c2ccc3c(c2)OCCO3)c1 | 611 s
19 | Cc1cccc(-n2ncc3c(NCCCN4CCCC4=O)ncnc32)c1 | 682 s
20 | COc1ccc(OC)c(CNC(=O)C2CCCN(c3ncnc4c3oc3ccccc34)C2)c1 (configuration not stated) | 761 s
21 | Cn1c(-c2cccs2)c(CNC(=O)Nc2ccc3c(c2)OCO3)c2ccccc21 | 1010 s
22 | COc1ccc2c(c1)C1(CCN(C(=O)NCc3ccc(C)cc3)C1)C(=O)N2 (configuration not stated) | 725 s

Row | SMILES | RP-LC retention time
23 | Cc1ccc(CNC(=O)C2CCCN(c3nnc4ccccn34)C2)cc1C (configuration not stated) | 708 s
24 | CC(C)c1noc(-c2cc(=O)n(CC(=O)Nc3ccc4c(c3)OCO4)c3ccccc23)n1 | 956 s
25 | CCCNC(=O)NC1CCN(c2nc3ccccc3n(CC)c2=O)CC1 | 770 s
26 | CCOc1cccc(-c2noc(Cn3c(=O)n(-c4cccc(F)c4)c(=O)c4sccc43)n2)c1 | 1040 s
27 | CCCC(=O)Nc1ccc(CCc2nc3ccc(C(=O)NCCC4=CCCCC4)cc3[nH]2)cc1 | 734 s
28 | Cc1cccc(Nc2c(-c3ccc(Cl)cc3)nc3cnccn23)c1C | 1110 s
29 | COc1ccc(C(=O)N(C2CCCC2)C2(C(=O)NCc3ccccc3)CCN(C(C)=O)CC2)cc1 | 885 s
30 | COCc1noc([C@@H]2CC(F)(F)CN2C(=O)c2c(C)noc2C)n1 | 705 s
31 | CCc1csc(-c2ccc(N3CCN(C(=O)c4c(F)cccc4F)CC3)nc2)n1 | 976 s
32 | CCOc1ccc(-c2nc(Cc3noc(-c4ccccn4)n3)c(C)o2)cc1 | 966 s
33 | Cc1ccc(CNC(=O)Cn2c(C)nc3onc(C)c3c2=O)cc1 | 764 s
34 | CCOc1ccccc1N1CCN(C(=O)C2CCN(c3ncnc4c3oc3ccccc34)CC2)CC1 | 814 s
35 | CC(=O)c1ccc(N2CCN(C(=O)CN3C(=O)C(C)(C)c4cc(C)ccc43)CC2)cc1 | 855 s
36 | Cc1nnc(-c2ccc3ccn(CC(=O)Nc4nccs4)c3c2)o1 | 707 s
37 | CC1=C(C(=O)N2CCOCC2)C(c2ccc(Cl)cc2)C2=C(CC(C)(C)CC2=O)N1 (configuration not stated) | 710 s
38 | CC1CCc2onc(C(=O)N3CCN(c4ccccc4)CC3)c2C1 (configuration not stated) | 1020 s
39 | COc1cc2nc(C(=O)N3CCCCC3)cc(Nc3ccc(C(C)C)cc3)c2cc1OC | 832 s
40 | COC(=O)c1ccc(NC(=O)Cn2cccc(-c3nc(-c4ccc(OC)c(OC)c4)no3)c2=O)cc1 | 1010 s
41 | COC(=O)c1cc(S(=O)(=O)N2CCCC2C(=O)Nc2ccccc2F)cn1C (configuration not stated) | 844 s
42 | CC1=C(c2ccc(F)cc2)S(=O)(=O)N=C1N1CCC(NC(=O)NC(C)C)CC1 | 861 s
43 | Cc1ccc(NC(=O)C2CC(=O)N(c3n[nH]c4cccc(F)c34)C2)cc1C (configuration not stated) | 831 s
44 | Cc1cc(N2CCN(S(=O)(=O)c3ccc(F)c(F)c3)CC2)nc(N2CCCC2)n1 | 720 s

Row | SMILES | RP-LC retention time
45 | O=C(Nc1ccc(-c2nc(-c3ccccc3)no2)cc1)C1CC(=O)N(C2CCCCC2)C1 (configuration not stated) | 1070 s
46 | COc1ccccc1CC(=O)Nc1ccc2c(c1)CCC(=O)N2 | 670 s
47 | COc1ccc(NC(=O)c2ccc(-c3ccc(-c4noc(C)n4)cc3C)cc2)cc1N1CCN(C)CC1 | 812 s
48 | CCOc1ccc(S(=O)(=O)N2CC(F)(F)C[C@H]2CN2CCc3ccccc3C2)cc1 | 798 s
49 | Cc1noc(C)c1-c1ccc(S(=O)(=O)NC2CCCc3ccccc32)cc1 (configuration not stated) | 1040 s
50 | CCN1C(=O)COc2ccc(-c3csc(NC(=O)c4ccccc4Br)n3)cc21 | 980 s
51 | Cc1ccc(-c2c(C(=O)NCc3ccco3)nc3ccccn23)cc1 | 1150 s
52 | COc1ccc(NC(=O)c2cnc3c(c2)c(=O)n(C)c(=O)n3-c2ccc(C)cc2)cc1F | 849 s
53 | COCCn1cc(CCNC(=O)Nc2ccc(Cl)cc2F)c2cccnc21 | 806 s
54 | COc1cccc(N2C=C(C(=O)N3CCCC3)S(=O)(=O)c3ccc(Cl)cc32)c1 | 853 s
55 | CCOCCCNC(=O)c1ccc(OCc2nnc(C(=O)Nc3ccccc3F)s2)cc1 | 853 s
56 | COc1cc2ncc(C(=O)c3ccccc3)c(N3CCN(C)CC3)c2cc1OC | 556 s
57 | Cc1ccc(-c2noc(C3CC(=O)N(c4ccc(C)c(F)c4)C3)n2)cc1 (configuration not stated) | 1110 s
58 | Cc1cc(C(=O)Nc2ccc(F)cc2)nc2ccnn12 | 889 s
59 | Cc1ccc(-c2ccc(N3CCCC(C(=O)N4CCC5(CC4)OCCO5)C3)nn2)cc1C (configuration not stated) | 684 s
60 | COc1ccccc1N1CCN(C(=O)c2cn(-c3ccc(NC(=O)C4CC4)cn3)cn2)CC1 | 699 s
61 | O=C(Nc1ccc(C(F)(F)F)cc1)C1CCN(S(=O)(=O)c2ccc3[nH]c(=O)sc3c2)CC1 | 924 s
62 | O=C(NCc1cccnc1)c1cc2cc(Cl)ccc2[nH]1 | 632 s
63 | O=C(Cn1c(=O)cc(-c2nc(C3CC3)no2)c2ccccc21)NC1CCCC1 | 869 s
64 | O=C(CCC1CCCN(C(=O)Nc2ccc(Cl)cc2)C1)NCc1cccc(Cl)c1 (configuration not stated) | 960 s
65 | Cc1ccc(-c2coc(-c3cccc(NS(=O)(=O)c4ccc(Br)s4)c3)n2)cc1 | 1300 s
66 | O=C(Nc1ccccc1)c1cccn1Cc1noc(C2CC2)n1 | 885 s

Row | SMILES | RP-LC retention time
67 | O=C(NCC1CCOCC1)c1nccc2ccccc12 | 717 s
68 | O=C(c1cnn2c1CCCC2)N1CCCC1 | 614 s
69 | COc1ccc2[nH]cc(CCN3CC(C(=O)Nc4ccc(Cl)cc4)CC3=O)c2c1 (configuration not stated) | 829 s
70 | CCn1cc(-c2nc(C(=O)Nc3cc(C)ccc3F)cs2)c2cccnc21 | 1240 s
71 | CCOc1cc(C(=O)N2CCN(c3cc(=O)n(C)c(=O)n3C)CC2)cc(OCC)c1OCC | 730 s
72 | CC(C)NC(=O)CN1CCN(c2ncc(C(=O)NCc3ccccc3)c(N)n2)CC1 | 593 s
73 | Cc1cc(Cl)ccc1S(=O)(=O)N1C[C@@H](F)C[C@H]1C(=O)N1CCCCC1 | 948 s
74 | O=C1c2ccccc2C(=O)c2c(O)c(NCCNCCO)cc(O)c21 | 653 s
75 | Cc1oc(C2CCN(C(=O)Nc3ccc(Cl)cc3F)CC2)nc1C(=O)N(C)C | 714 s
76 | Cn1nc(-c2ccc(F)cc2)cc1C(=O)NCCN1CCN(C(=O)c2cccs2)CC1 | 593 s
77 | CCC(=O)N1CCc2cc(C(=O)N3CCOCC3)ccc21 | 637 s
78 | Cc1oc(-c2ccc(C(=O)NCCc3ccco3)cc2)nc1CN1CCc2ccccc21 | 1050 s
79 | C1CCCC(NC2=NCCO2)CCC1 | 680 s
80 | CCC1(C(=O)Nc2ccc(C(C)C)cc2)CCCCC(=O)N1 (configuration not stated) | 872 s
81 | CC(C)N1C(=O)c2cccnc2Sc2cc(NC(=O)C3CCCO3)ccc21 (configuration not stated) | 729 s
82 | CCc1nn2c(CNS(=O)(=O)c3ccc(F)cc3)c(-c3ccccc3)nc2s1 | 932 s
83 | Cc1cc(C)n(-c2nc(-c3ccccc3)cc(=O)n2CC(=O)N2CCCc3ccccc32)n1 | 1040 s
84 | Cc1cccc(-c2nnc(CC(=O)NCC(C)C)o2)c1 | 790 s
85 | CCn1ccc2sc(C)c(C(=O)N3CCCCCC3)c2c1=O | 760 s
86 | O=C(Cn1nc2c3sc(N4CCCCC4)nc3ncn2c1=O)Nc1ccc(Cl)cc1 | 832 s
87 | COc1ccc(N2CC(c3nc(-c4cc(OC)c(OC)c(OC)c4)no3)CC2=O)cc1 (configuration not stated) | 743 s
